Assay results from patent publication US4906657A, “Bicyclo heptane and bicyclo octane substituted inhibitors of cholesterol synthesis” (Warner-Lambert Company, priority 1988, dated 1990).

System: biosynthesis of cholesterol (rat liver homogenate)
Assay: CSI screen (inhibition of sterol synthesis; incorporation of 14C-acetate into non-saponifiable lipid by rat liver homogenate)
Type: biochemical
Conditions: 50% inhibition of sterol synthesis over a one-hour period
Procedure: The ability of compounds of the present invention to inhibit the biosynthesis of cholesterol was measured by a method (designated CSI screen) which utilizes the procedure described by R. E. Dugan, et al, Archiv. Biochem. Biophys., (1972), 152, 21-27. In this method, the level of HMG-CoA enzyme activity in standard laboratory rats is increased by feeding the rats a chow diet containing 5% cholestryramine for four days, after which the rats are sacrificed.
The rat livers are homogenized, and the incorporation of […] into non-saponifiable lipid by the rat liver homogenate is measured. The micromolar concentration of compound required for 50% inhibition of sterol synthesis over a one-hour period is measured, and expressed as an IC50 value.

Structure (SMILES)	IC50 [nM]
C=C1CC2(C)CC1C(c1ccccc1)=C2/C=C/[C@@H](O)C[C@@H](O)CC(=O)OCC (relative stereo)	440
C=C1CC2(C)CC1C(c1ccccc1)=C2C=CC1CC(O)CC(=O)O1 (centres unmarked)	440
